Results taken from US6020374A, “Biologically active synthetic dye compounds” (priority 1998, dated 2000).

Columns and labels:
IR = target: T1, IR (Rattus norvegicus, UniProt P15127); test: Tyrosine phosphorylation of IR in FaO cells; assay type: cell-based; conditions: 3 hour preincubation with vanadate, 5 min. incubations with EB and insulin
T1 construct: determined in the rat hepatoma cell line FaO; endogenous in cells; host or cells: FaO (rat hepatoma)
Experimental: (§1) FIG. 9 is the tyrosine phosphorylation of the IR cascade in Fao cells: A--Immunoblot analysis: Fao cells were deprived of serum for 20 hours, then incubated with EB, ATA, at 200 μg/ml or insulin at 600 ng/ml for 5 mins. Cell extracts were subjected to immunoprecipitation with antibodies to: IR β-subunit (αIR), IRS-1 (αIRS-1) and to IRS-2 (αIRS-2). The immunoprecipitates and total cell extracts were analyzed by SDS-PAGE. Proteins were transferred to nitrocellulose papers, and phosphotyrosine containing proteins were probed with anti-phosphotyrosine antibodies (αP-Tyr), antibody to the 85-kDa subunit of PI3-kinase (αp85) and antibodies to active MAPK (α active MAPK). The immunoblots were visualized by ECL (Amersham).
B--Kinetics of IR phosphorylation: Cells were treated either with 200 μg/ml EB for the indicated times (top panel) or with the indicated concentrations of EB for 5 mins. (middle panel). A 3 hour preincubation with vanadate preceded the 5 min. incubations with EB and insulin (bottom panel).
(§2) MCF-7 cells were grown in 35 or 100 mm dishes in DMEM with 5% bovine fetal serum. Rat hepato FaO cells were grown in RPMI 1640 medium supplemented with 10% fetal calf serum. Subconfluent monolayers of MCF-7 cells or FaO cells, were deprived of serum for 20 hours prior to each experiment. The medium was removed, and cells were incubated at 37° C. under the conditions as indicated for each experiment. The reaction was terminated by removing the medium and freezing the monolayers with liquid nitrogen. In some experiments, cells were preincubated with 50 μM sodium orthovanadate for 3 hours.
(§3) Cells were solubilized in Buffer A or C. Extracts were immunoprecipitated at 4° C. with antibodies to IRS-1, IRS-2, IGF-1 or IR receptor or Grb2, adsorbed on protein A-Sepharose beads. The immunocomplexes were pelleted by centrifugation at 12,000×g and washed twice with Buffer A, and twice with Buffer A containing 0.1% Triton x-100. The pellets were then suspended in Laemmli sample buffer and resolved on 7.5% SDS-PAGE.
(§4) Nitrocellulose blots of proteins were incubated with the antibodies, and proteins were detected by enhanced chemiluminescence using horseradish peroxidase-labeled protein A, horseradish peroxidase-labeled anti rabbit IgG or horseradish peroxidase-labeled anti-mouse IgG.
The ability of EB and ATA to phosphorylate the IR was determined in the rat hepatoma cell line FaO. […] Phosphorylation is maximal after a 1 min. exposure to 70 μg/ml of EB (FIG. 9B, top and middle panels).

[1] = system: 185 kDa protein(s) (p185); test: Tyrosine phosphorylation of p185 in MCF-7 cells (anti-phosphotyrosine immunoblot); assay type: cell-based
Experimental: FIG. 1 is the effect of ATA and EB on tyrosine phosphorylation: MCF-7 cells, grown in 35 mm dishes were solubilized in Buffer A (a) or Buffer B (b-c). The solubilized cells were subjected to 7.5% SDS-PAGE and immunoblotted with an anti-phosphotyrosine antibody. (a) Cells treated for 5 mins. with ATA, EB, each at 300 μg/ml, IGF-1 at 20 ng/ml, or without additives (CON); (b) Cells treated with 300 μg/ml ATA for the indicated times; (c) Cells treated with 30 μg/ml EB for the indicated times; (d) Cells treated for 5 mins. with the indicated concentrations of ATA; (e) Cells treated for 5 mins. with the indicated concentrations of EB. Molecular mass markers (in kDa) are indicated on the right.
FIG. 2 is the effect of ATA and vanadate on the IGF-1 stimulated tyrosine phosphorylation of p185: A--Cells treated for 5 mins. with the indicated concentrations of IGF-1 in the presence or absence of 300 μg/ml ATA; B--Cells pre-incubated for 3 hours with or without 50 μM vanadate were incubated for 5 mins. with ATA, EB each at 300 μg/ml or with 10 ng/ml IGF-1 in the presence or absence of vanadate. Cytosols extracted in Buffer B were analyzed by immunoblotting with anti-phosphotyrosine antibody as in FIG. 1.
FIG. 8 is the effect of fractionated ATA on p185 phosphorylation: A--Crude ATA was separated on a Bio-Rad P-4 column and the combined void volume was then gel filtrated on a column of Bio-Rad P-10. The column was calibrated with the following molecular weight markers: DB-Dextran blue; CC-cytochrome C: Ins-insulin; B12-Vitamin B12. B--MCF-7 cells were incubated for 5 mins. with the indicated fractions of ATA (eluted from the P-10 column shown in A), crude ATA, each at 200 μg/ml or IGF-1 at 20 ng/ml. Cytosols, solubilized in Buffer B were subjected to 7.5% SDS-PAGE and immunoblotted with phosphotyrosine antibody.
as §2
Cells were solubilized at 4° C. with 0.2 ml/35 mm dish or 2 ml/100 mm dish of the indicated buffer. The solubilized cells were scraped and sedimented by centrifugation at 12,000×g for 30 mins. at 4° C. Aliquots of the supernatants were normalized for protein, mixed with concentrated (5×) Laemmli sample buffer, boiled for 10 mins. and resolved on 7.5 or 12% SDS-PAGE under reducing conditions.
as §4

MCF-7 cells = test: Cell death estimation, cycloheximide-exposed MCF-7 cells (trypan blue); assay type: cell-based; conditions: 30 μg CX, 48 hours, IGF-1 20 μg/ml
Experimental: Subconfluent cultures of MCF-7 cells in 35 mm dishes, were deprived of serum for 20 hours and then exposed to 30 μg/ml cycloheximide in the presence or absence of increasing concentrations of fractionated ATA, crude ATA or EB. After 48 hours, the cells were detached with trypsin. The medium and the detached cells were pooled and centrifuged at 1000×g for 10 mins. Cell viability was estimated by adding an equivalent volume of trypan blue solution to an aliquot of suspended cells. Stained and unstained cells were counted on a hemocytometer (10^3 cells were counted for each determination).
Subconfluent, 20 hours starved MCF-7 cells were exposed to 30 μg/ml
of cycloheximide in the presence of increasing
concentrations of fractionated ATA (0, 6, 12, 25, 50 μg/ml). After
48 hours, percent of dead cells was
determined as described under "Experimental procedures". In the
presence of cycloheximide only, 60-70% of
the cells were dead after 48 hours.
Cultures of […] cells were exposed to 30 μg CX for 48 hours in the presence of EB, ATA, IGF-1, or nothing.

IRS-2 [2] = test: IRS-2 association with p85 of PI3-kinase in MCF-7 cells; assay type: cell-based; conditions: 5 mins., ATA or EB 300 μg/ml, IGF-1 20 ng/ml
Experimental: FIG. 4 is the effect of ATA and EB on tyrosine phosphorylation of IRS-2: MCF-7 cells were treated as in FIG. 3. Total cell extracts, solubilized in Buffer C, were immunoprecipitated with an antibody to IRS-2. The immunocomplexes, precipitated with protein A-Sepharose beads were subjected to 7.5% SDS-PAGE, followed by immunoblotting with a phosphotyrosine antibody and an antibody to the 85-kDA subunit of PI3-kinase.
as §3, §4
(§5) MCF-7 cells were stimulated with ATA, EB or IGF-1, solubilized and immunoprecipitated with anti IRS-1 or IRS-2 antibodies, separated by SDS-PAGE and immunoblotted with anti-phosphotyrosine antibody. […] The association of IRS-1 with Grb-2 was evaluated in lysates from treated cells which were immunoblotted with antibodies to either phosphotyrosine or IRS-1.

[3] = system: MAPK-1 (44 kDa) and MAPK-2 (42 kDa); test: Activation of MAPKs in MCF-7 cells (anti-active MAPK immunoblot); assay type: cell-based; conditions: 5 mins., ATA, EB each at 300 μg/ml, IGF-1 20 or 40 ng/ml
Experimental: FIG. 7 is the effect of ATA and EB on activation of MAPKs: MCF-7 cells were treated for 5 mins. with ATA, EB, each at 300 μg/ml, 20 ng/ml or 40 ng/ml IGF-1. Cell lysates, solubilized in Buffer C, were subjected to 12% SDS-PAGE and immunoblotted with an anti-active MAPK antibody. The membrane, after ECL detection, was stripped of bound antibody and blotted with an anti-MAPK antibody.
as §4
The activated forms of MAPKs were detected by anti-active MAPK immunoblotting in the MCF-7 cell's lysates. […] Blotting with anti MAPKs antibodies confirms that similar amounts of MAPKs were present in treated and non-treated cells.

IRS-1 [4] = test: IRS-1 tyrosine phosphorylation and association with p85/Grb2 in MCF-7 cells; assay type: cell-based; conditions: 5 mins., ATA or EB 300 μg/ml, IGF-1 20 ng/ml
Experimental: FIG. 3 is the effect of ATA and EB on tyrosine phosphorylation or IRS-1: MCF-7 cells grown in 100 mm dishes, were treated with ATA or EB, each at 300 μg/ml, or 20 ng/ml IGF-1 for 5 mins. Total cell extracts, solubilized in Buffer A, were subjected to immunoprecipitation with antibodies to IRS-1 (a) or Grb2 (b). The immunocomplexes, precipitated with protein G-Sepharose beads, were subjected to 7.5% SDS-PAGE followed by immunoblotting with a phosphotyrosine antibody, an antibody to the 85-kDa subunit of PI3-kinase or antibody to IRS-1.
as §3, §4, §5

[5] = system: IR, IRS-1 and the 85-kDa regulatory subunit of PI3-kinase; test: In vivo tyrosine phosphorylation of the IR cascade in rat liver; conditions: Sprague-Dawley male rats, portal vein injection, EB 20 mg/rat, insulin 1 u/rat
Experimental: A--Immunoblot analysis. Rat liver extracts were subjected to immunoprecipitation and blotting with the indicated antibodies, as described in the legend to FIG. 9A.
(§6) EB (20 mg/rat) or insulin (1 u/rat) was injected into about 120 g weighing Sprague-Dawley male rats, via the portal vein. Control rats were injected with saline (SAL) alone. The rats were killed and the livers excised and frozen in liquid nitrogen at the indicated times.

MAPKs 1 and 2 = test: Activation of MAPKs in FaO cells; assay type: cell-based, rat; conditions: 5 mins., EB 200 μg/ml, insulin 600 ng/ml
Experimental: as §1, §4
In the rat hepatoma cell line FaO, EB and insulin, enhanced IRS-1 and IRS-2 tyrosine phosphorylation and their association with the 85-kDa regulatory subunit of the PI-kinase (FIG. 9A). PI3-kinase activity increases following its association with IRS-1 and IRS-2 (FIG. 9C). MAPKs 1 and 2 were activated by EB and insulin (FIG. 9A).

3T3 L1 adipocytes [6] = test: 2-deoxyglucose uptake in 3T3 L1 adipocytes; assay type: cell-based; conditions: 20 mins., EB, ATA 200 μg/ml, insulin 600 ng/ml
Experimental: (§7) FIG. 11 is the metabolic effects in 3T3 L1 adipocytes: Fully differentiated 3T3 L1 adipocytes were incubated with EB, ATA or fuchsin (FUCH) each at 200 μg/ml, or with 600 ng/ml of insulin for 20 mins. (A, B, C) or 5 mins. (D). CON indicates no additive.
A--2-deoxyglucose uptake. Hexose uptake was measured for 10 mins. using 50 μM 2-deoxy-(^3 H) glucose (1 μCi/ml). Non-specific uptake was determined in the presence of cytochalasin B (50 μM).

3T3 L1 adipocytes [7] = test: Lipogenesis in 3T3 L1 adipocytes; assay type: cell-based; conditions: 20 mins., EB, ATA 200 μg/ml, insulin 600 ng/ml
Experimental: as §7
C--Lipogenesis. Cells were incubated with 5 mM(U-^14 C) glucose (1 μCi/ml) for 60 mins. Radioactivity was determined in the cellular lipid fraction.

IRS-2 [8] = test: IRS-2 tyrosine phosphorylation and association with p85 in FaO cells; assay type: cell-based, rat; conditions: 5 mins., EB 200 μg/ml, insulin 600 ng/ml
Experimental: as §1
as §2, with “The reaction was terminated by removing the medium and freezing the monolayers with liquid nitrogen. In some experiments, cells were preincubated with 50 μM sodium orthovanadate for 3 hours.” left out
(§8) Nitrocellulose blots of proteins were incubated with the antibodies, and proteins were detected by enhanced chemiluminescence using horseradish peroxidase-labeled protein A, horseradish peroxidase-labeled anti rabbit IgG or horseradish peroxidase-labeled anti-mouse IgG. […]

PI3-kinase = test: In vivo PI3-kinase activity in rat liver; conditions: Sprague-Dawley male rats, portal vein, 5 mins. after injection, EB 20 mg/rat, insulin 1 u/rat
Experimental: B--Induction of PI3-kinase. PI3-kinase activity, 5 mins. after injection was assayed as described in FIG. 9C. The results are representative of 2 to 4 independent experiments.
as §6

IRS-1 [9] = test: IRS-1 tyrosine phosphorylation and association with p85 in FaO cells; assay type: cell-based, rat; conditions: 5 mins., EB 200 μg/ml, insulin 600 ng/ml
Experimental: as §1
as §2, with “The reaction was terminated by removing the medium and freezing the monolayers with liquid nitrogen. In some experiments, cells were preincubated with 50 μM sodium orthovanadate for 3 hours.” left out
as §8

3T3 L1 adipocytes [10] = test: Glycogen synthesis in 3T3 L1 adipocytes; assay type: cell-based; conditions: 20 mins., EB, ATA 200 μg/ml, insulin 600 ng/ml
Experimental: as §7
B--Glycogen synthesis. Cells were incubated with (^14 C)-glucose for 10 mins. Radioactivity was determined in the precipitated glycogen fraction.

T1 sequence (P15127 764-1383 limits assumed): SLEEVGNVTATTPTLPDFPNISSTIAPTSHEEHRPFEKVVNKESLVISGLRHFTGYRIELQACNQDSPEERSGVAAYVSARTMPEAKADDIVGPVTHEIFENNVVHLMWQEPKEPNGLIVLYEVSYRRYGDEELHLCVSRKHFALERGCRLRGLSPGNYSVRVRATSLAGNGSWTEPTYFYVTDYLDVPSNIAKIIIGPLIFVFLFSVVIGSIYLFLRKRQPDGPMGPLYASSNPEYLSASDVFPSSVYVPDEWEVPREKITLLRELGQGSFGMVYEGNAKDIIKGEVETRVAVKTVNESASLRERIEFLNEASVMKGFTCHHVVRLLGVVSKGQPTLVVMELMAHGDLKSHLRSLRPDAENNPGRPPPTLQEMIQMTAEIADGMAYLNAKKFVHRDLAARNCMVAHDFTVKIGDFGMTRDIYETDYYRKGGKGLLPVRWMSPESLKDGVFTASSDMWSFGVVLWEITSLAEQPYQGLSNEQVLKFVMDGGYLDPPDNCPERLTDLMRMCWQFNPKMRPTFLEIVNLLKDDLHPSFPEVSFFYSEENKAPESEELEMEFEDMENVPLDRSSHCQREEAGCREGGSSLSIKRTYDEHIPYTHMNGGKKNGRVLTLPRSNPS
T1 sequence (P15127 27-759 limits assumed): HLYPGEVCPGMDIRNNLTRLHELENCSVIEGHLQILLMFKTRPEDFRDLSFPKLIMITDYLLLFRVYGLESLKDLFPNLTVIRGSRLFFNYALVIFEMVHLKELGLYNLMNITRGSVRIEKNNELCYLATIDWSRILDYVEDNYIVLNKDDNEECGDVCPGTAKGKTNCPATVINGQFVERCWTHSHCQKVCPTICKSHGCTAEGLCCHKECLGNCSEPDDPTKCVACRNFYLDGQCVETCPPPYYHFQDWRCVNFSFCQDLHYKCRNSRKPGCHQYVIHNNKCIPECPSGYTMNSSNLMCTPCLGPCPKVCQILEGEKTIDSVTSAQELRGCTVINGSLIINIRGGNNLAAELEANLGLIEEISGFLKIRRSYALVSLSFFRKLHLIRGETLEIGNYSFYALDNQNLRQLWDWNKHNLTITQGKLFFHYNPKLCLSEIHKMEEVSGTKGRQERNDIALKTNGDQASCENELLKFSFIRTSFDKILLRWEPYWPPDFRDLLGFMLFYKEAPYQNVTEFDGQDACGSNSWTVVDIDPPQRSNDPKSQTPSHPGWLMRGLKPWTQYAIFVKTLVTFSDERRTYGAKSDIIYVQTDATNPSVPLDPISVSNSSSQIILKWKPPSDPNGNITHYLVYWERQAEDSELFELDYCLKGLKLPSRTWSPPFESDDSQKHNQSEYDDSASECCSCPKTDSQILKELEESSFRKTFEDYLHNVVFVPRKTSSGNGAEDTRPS

[Na+].[Na+].[Na+].[O]=[V]([O-])([O-])[O-] [Vanadate, sodium orthovanadate, reference compound]
Effect on IR phosphorylation induced by insulin (IR): enhances | Effect on phosphorylation of p185 induced by IGF-1, ATA and EB ([1]; MCF-7 cells pre-incubated 3 hours with 50 μM vanadate): markedly enhanced

IGF-1: Recombinant human IGF-1 from Boehringer Mannheim
Percent dead cells (MCF-7 cells): 15 ± 4% | Tyrosine phosphorylation of a 185 kDa protein(s) ([1]; MCF-7 cells, 5 mins., ATA, EB each at 300 μg/ml, IGF-1 at 20 ng/ml): enhanced tyrosine phosphorylation of a 185 kDa protein(s) | pp185 (arbitrary units) ([1]; MCF-7 cells, 5 mins., IGF-1 at 20 ng/ml, scanned autoradiogram from FIG. 8B, Control 100): 1,751 arbitrary units | Association of p85 subunit of PI3-k with IRS-2 (IRS-2 [2]): p85 precipitates | Phosphorylated (active) isoforms MAPK-1 and MAPK-2 [3]: clearly detected | Association of IRS-1 with Grb-2 (IRS-1 [4]): IRS-1 co-precipitated with Grb2 | Association of p85 subunit of PI3-k with IRS-1 (IRS-1 [4]): p85 precipitates with IRS-1 | Phosphorylation of IRS-1 (IRS-1 [4]): stimulated the phosphorylation of IRS-1

insulin: The hormone insulin
Tyrosine phosphorylation of IR, IRS-1 and 85-kDa subunit of PI3-kinase in liver [5]: phosphorylated tyrosines of IR, IRS-1 and the 85-kDa of the regulatory subunit of PI3-kinase | Activation of MAPKs 1 and 2 (MAPKs 1 and 2): activated | Glucose uptake (3T3 L1 adipocytes [6]): increase glucose uptake | Lipogenesis (3T3 L1 adipocytes [7]): increase | IRS-2 tyrosine phosphorylation and association with the 85-kDa regulatory subunit of PI-kinase (IRS-2 [8]): enhanced | PI3-kinase activity in liver (PI3-kinase): increased | IRS-1 tyrosine phosphorylation and association with the 85-kDa regulatory subunit of PI-kinase (IRS-1 [9]): enhanced | Glycogen synthesis (3T3 L1 adipocytes [10]): increase
